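48-hour exposure; five concentrations; linearly interpolated endpoints. GI50 is the concentration that inhibits growth by half. Definition used: TGI = concentration required for complete inhibition of growth.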
Legend:
Assay in all cases: growth of human tumour cells (NCI), 48 h
[1] = system: 786-0 renal
[2] = system: A498 renal
[3] = system: A549 NSCLC
[4] = system: ACHN renal
[5] = system: BT-549 breast
[6] = system: CAKI-1 renal
[7] = system: CCRF-CEM leukemia
[8] = system: COLO 205 colon
[9] = system: DU-145 prostate
[10] = system: EKVX NSCLC
[11] = system: HCC-2998 colon
[12] = system: HCT-116 colon
[13] = system: HCT-15 colon
[14] = system: HOP-62 NSCLC
[15] = system: HOP-92 NSCLC
[16] = system: HS 578T breast
[17] = system: HT29 colon
[18] = system: IGROV1 ovarian
[19] = system: KM12 colon
[20] = system: LOX IMVI melanoma
[21] = system: M14 melanoma
[22] = system: MALME-3M melanoma
[23] = system: MCF7 breast
[24] = system: MDA-MB-231 breast
[25] = system: MDA-MB-435
[26] = system: NCI-H226 lung
[27] = system: NCI-H460 lung
[28] = system: NCI-H522 lung
[29] = system: NCI/ADR-RES ovarian
[30] = system: OVCAR-3 ovarian
[31] = system: OVCAR-4 ovarian
[32] = system: OVCAR-5 ovarian
[33] = system: OVCAR-8 ovarian
[34] = system: PC-3 prostate
[35] = system: RPMI-8226 leukemia
[36] = system: RXF 393 renal
[37] = system: SF-268 CNS
[38] = system: SF-295 CNS
[39] = system: SF-539 CNS
[40] = system: SK-MEL-2 melanoma
[41] = system: SK-MEL-28 melanoma
[42] = system: SK-MEL-5 melanoma
[43] = system: SK-OV-3 ovarian
[44] = system: SN12C renal
[45] = system: SNB-19 CNS
[46] = system: SNB-75 CNS
[47] = system: SW-620 colon
[48] = system: T-47D breast
[49] = system: TK-10 renal
[50] = system: U251 CNS
[51] = system: UACC-257 melanoma
[52] = system: UACC-62 melanoma
[53] = system: UO-31 renal
[54] = system: HL-60(TB) leukemia
[55] = system: K-562 leukemia
[56] = system: MOLT-4 leukemia
[57] = system: SR leukemia

For `OC1CCN(CCCOc2c3ccccc3nc3c2oc2ccccc23)CC1`, the GI50 [1] was 2300 nM, the TGI [1] was 18000 nM and the GI50 [2] was 1730 nM. It also gave a TGI [2] of 3380 nM, a GI50 [3] of 2540 nM and a TGI [3] of 16400 nM. It also gave a GI50 [4] of 800 nM, a TGI [4] of 25200 nM and a GI50 [5] of 2800 nM. It also gave a TGI [5] of 8880 nM, a GI50 [6] of 1670 nM and a TGI [6] of 12900 nM. The GI50 [7] was 2120 nM, the TGI [7] was 16300 nM and the GI50 [8] was 1060 nM. The TGI [8] was 2830 nM, the GI50 [9] was 3660 nM and the TGI [9] was 23100 nM. The GI50 [10] was 2790 nM, the TGI [10] was 12900 nM and the GI50 [11] was 1460 nM. The TGI [11] was 3760 nM, the GI50 [12] was 505 nM and the TGI [12] was 12300 nM. For the same molecule, the GI50 [13] was 2020 nM, the TGI [13] was 9730 nM and the GI50 [14] was 2320 nM. The TGI [14] was 11900 nM, the GI50 [15] was 853 nM and the TGI [15] was 4280 nM. For the same molecule, the GI50 [16] was 2380 nM, the TGI [16] was 8830 nM and the GI50 [17] was 1100 nM. It also gave a TGI [17] of 3650 nM, a GI50 [18] of 2610 nM and a TGI [18] of 11300 nM. The GI50 [19] was 2990 nM, the TGI [19] was 49600 nM and the GI50 [20] was 626 nM. It also gave a TGI [20] of 3510 nM, a GI50 [21] of 2390 nM and a TGI [21] of 7890 nM. The GI50 [22] was 1860 nM, the TGI [22] was 3950 nM and the GI50 [23] was 2310 nM. It also gave a TGI [23] of 10100 nM, a GI50 [24] of 2370 nM and a TGI [24] of 11100 nM. For the same molecule, the GI50 [25] was 2310 nM, the TGI [25] was 6790 nM and the GI50 [26] was 1900 nM. The TGI [26] was 4740 nM, the GI50 [27] was 1590 nM and the TGI [27] was 11100 nM. The GI50 [28] was 1570 nM, the TGI [28] was 4380 nM and the GI50 [29] was 1030 nM. The TGI [29] was 8100 nM, the GI50 [30] was 3610 nM and the TGI [30] was 24900 nM. The GI50 [31] was 2140 nM, the TGI [31] was 8630 nM and the GI50 [32] was 2470 nM. For the same molecule, the TGI [32] was 9490 nM, the GI50 [33] was 1810 nM and the TGI [33] was 6710 nM. The GI50 [34] was 2120 nM, the TGI [34] was 7930 nM and the GI50 [35] was 2470 nM. For the same molecule, the TGI [35] was 7460 nM, the GI50 [36] was 1320 nM and the TGI [36] was 3640 nM. For the same molecule, the GI50 [37] was 2530 nM, the TGI [37] was 14800 nM and the GI50 [38] was 2390 nM. It also gave a TGI [38] of 10500 nM, a GI50 [39] of 2020 nM and a TGI [39] of 6400 nM. It also gave a GI50 [40] of 1930 nM, a TGI [40] of 3590 nM and a GI50 [41] of 1930 nM. The TGI [41] was 3810 nM, the GI50 [42] was 1770 nM and the TGI [42] was 3200 nM. For the same molecule, the GI50 [43] was 2560 nM, the TGI [43] was 8700 nM and the GI50 [44] was 1700 nM. It also gave a TGI [44] of 13500 nM, a GI50 [45] of 2360 nM and a TGI [45] of 14800 nM. It also gave a GI50 [46] of 1860 nM, a TGI [46] of 4300 nM and a GI50 [47] of 825 nM. The TGI [47] was 11900 nM, the GI50 [48] was 2510 nM and the TGI [48] was 7270 nM. For the same molecule, the GI50 [49] was 2410 nM, the TGI [49] was 7730 nM and the GI50 [50] was 2140 nM. The TGI [50] was 12200 nM, the GI50 [51] was 1830 nM and the TGI [51] was 3720 nM. For the same molecule, the GI50 [52] was 1860 nM, the TGI [52] was 4430 nM and the GI50 [53] was 1180 nM. It also gave a TGI [53] of 3130 nM.

`COc1ccc2[nH]cc(/C=N/Nc3ccnc4cc(Cl)ccc34)c2c1` was tested, and the GI50 [2] was 1490 nM, the TGI [2] was 2830 nM and the GI50 [4] was 346 nM. The TGI [4] was 1070 nM, the GI50 [5] was 1680 nM and the TGI [5] was 3090 nM. For the same molecule, the GI50 [6] was 1540 nM, the TGI [6] was 2910 nM and the GI50 [7] was 304 nM. It also gave a TGI [7] of 1120 nM, a GI50 [9] of 729 nM and a TGI [9] of 1980 nM. It also gave a GI50 [11] of 1670 nM, a TGI [11] of 3190 nM and a GI50 [54] of 265 nM. The TGI [54] was 859 nM, the GI50 [16] was 1990 nM and the TGI [16] was 4810 nM. It also gave a GI50 [17] of 219 nM, a TGI [17] of 482 nM and a GI50 [55] of 300 nM. The TGI [55] was greater than 100000 nM, the GI50 [19] was 1650 nM and the TGI [19] was 3920 nM. It also gave a GI50 [22] of 1760 nM, a TGI [22] of 3220 nM and a GI50 [25] of 1670 nM. For the same molecule, the TGI [25] was 3060 nM, the GI50 [56] was 265 nM and the TGI [56] was 713 nM. For the same molecule, the GI50 [27] was 202 nM, the TGI [27] was 409 nM and the GI50 [30] was 1580 nM. The TGI [30] was 3160 nM, the GI50 [32] was 1490 nM and the TGI [32] was 2840 nM. The GI50 [35] was 271 nM, the TGI [35] was 671 nM and the GI50 [40] was 1830 nM. For the same molecule, the TGI [40] was 3480 nM, the GI50 [42] was 1650 nM and the TGI [42] was 3060 nM. For the same molecule, the GI50 [44] was 1600 nM, the TGI [44] was 3000 nM and the GI50 [46] was 1560 nM. The TGI [46] was 2930 nM, the GI50 [57] was 171 nM and the TGI [57] was 4140 nM. It also gave a GI50 [47] of 186 nM, a TGI [47] of 379 nM and a GI50 [48] of 1280 nM. For the same molecule, the TGI [48] was 3590 nM, the GI50 [49] was 1900 nM and the TGI [49] was 3350 nM. For the same molecule, the GI50 [53] was 1470 nM and the TGI [53] was 2780 nM.

Source: PubChem BioAssay (NCI)
